Assay results as given in PubChem BioAssay AID2305 (GlaxoSmithKline (GSK), 2010).

Tested on: P. falciparum 3D7 growth, pLDH absorbance
Experiment: blood-stage malaria parasite growth potency – strain 3D7, dose response (AID 2305)

Row | SMILES | IC50 [nM]
1 | CC(=O)Nc1ccc(CN2CCc3ccc(NS(=O)(=O)c4cccc(OCc5ccc(Cl)cc5)c4)cc3CC2)s1 | 910
2 | Oc1ccc(Cl)cc1-c1cc(C(F)(F)F)nc(-c2ccccc2)n1 | 750
3 | CC1(C)N=C(N)N=C(N)N1c1cccc(C(F)(F)F)c1 | 10
4 | Cc1cc(NN=Cc2ccc(F)cc2)c2cc(C(F)(F)F)ccc2n1 | 230
5 | COc1ccc(C(=O)Nc2cc(Br)c3c(c2)CNCC3)cc1Br | 910
6 | COc1ccc2c(c1C1CCN(CCCCNC(=O)c3ccc(-c4ccc(Cl)cn4)cc3)CC1)CCCC2 | 1020
7 | Cn1cnc(CCNC(=O)c2cccc(-c3cccc(-c4nc5ccc(C(F)(F)F)cc5[nH]4)c3)c2)c1 | 700
8 | O=S(=O)(NC1CCN(c2ccnc3ccccc23)C1)c1ccc(OC(F)(F)F)cc1 (centres undefined) | 1080
9 | CCN(CCCN1CCCCC1)c1cc(C)nc(Nc2ccc(Cl)c(C(F)(F)F)c2)n1 | 170
10 | Cc1cc(N[C@@H](CC(C)C)C(=O)NCc2cccs2)nc(NCCc2cccs2)n1 | 1020
11 | CC(C)(C)C1CCc2nc(N)nc(N)c2C1 (centres undefined) | 10
12 | Oc1c(CNC2CCCCC2)cc(Cl)c2ccccc12 | 840
13 | O=C(NC1CCC(CN2CCC(c3c[nH]c4ccccc34)CC2)CC1)c1cc(-c2ccccc2Cl)oc1C(F)(F)F (centres undefined) | 770
14 | CC(C)N1CCC(N(Cc2ccc(-c3ccc(C(F)(F)F)cc3)cc2)C(=O)Cn2c(CCc3cccc(F)c3F)cc(=O)c3c2CCC3)CC1 | 620
15 | Cc1ccc([N+](=O)[O-])cc1NC(=O)N(CC(O)c1ccccc1)C1CCCCC1 (centres undefined) | 730
16 | Cc1cccc2[nH]c(-c3ccc(-c4cccc(CNCCN5CCNCC5)c4)cc3)nc12 | 1230
17 | COc1ccc(OC)c(Cc2c(C)nc3nc(N)nc(N)c3c2C)c1 | 860
18 | O=S(=O)(c1cccc(F)c1)c1ccc(Nc2ncnc3cc(Br)sc23)cc1Cl | 1030
19 | CCOC(=O)c1ccc(NC(=O)Nc2cccc(-c3ccc(-c4nc5ccc(F)cc5[nH]4)cc3)c2)cc1 | 90
20 | O=C(NCCN1CCCCC1)c1cc2cc(-c3ccccc3)ccc2n1S(=O)(=O)c1ccccc1 | 1120

Row | SMILES | IC50 [nM]
21 | CCOc1ccc2c(c1)OC(c1ccccc1)(C(F)(F)F)NC2=O (centres undefined) | 170
22 | CC(Cc1ccc(CSC(C)C)cc1)NCC(O)c1cccc(Cl)c1 (centres undefined) | 600
23 | CN1CCN(CC(=O)Nc2cccc(-c3cccc(-c4nc5ccc(C(F)(F)F)cc5[nH]4)c3)c2)CC1 | 370
24 | CC(CNC(=O)c1cc2c(Cl)cc(Cl)cc2[nH]1)CNc1cc(=O)c2ccccc2[nH]1 (centres undefined) | 720
25 | O=S(=O)(NCCN1CCCC1)c1ccc(-c2ccc(CNC3Cc4ccccc4C3)cc2)cc1F | 1000
26 | N/C(=N/C(=NCCCCCCN=C(/N=C(/N)Nc1ccc(Cl)cc1)N1CCCCC1)N1CCCCC1)Nc1ccc(Cl)cc1 | 260
27 | O=C(c1cc(C(=O)NCc2ccc(Cl)cc2)c(=O)n(Cc2ccc(Cl)cc2)c1)c1cc(F)ccc1O | 950
28 | CCCCCCN1CCC(NCc2ccc(C(F)(F)F)cc2)CC1 | 370
29 | CCOc1cc(C(=O)Nc2ccc3nc(N4CCN(C)CC4)cc(C)c3c2)cc(OCC)c1OCC | 850
30 | Cc1cc(NC(=O)Nc2cccc(C#N)c2)c2ccccc2n1 | 580
31 | Cc1cccc2[nH]c(-c3cccc(-c4cccc(NC(=O)c5ccc(C(N)=O)cc5)c4)c3)nc12 | 320
32 | Cc1cccc2[nH]c(-c3cccc(-c4cccc(CNCCc5cccn5C)c4)c3)nc12 | 730
33 | C[C@@H]1CN(c2cnn(C/C=C/c3ccc(NC(=O)c4ccc(Cl)cc4)cc3)c(=O)c2Cl)C[C@H](C)N1 | 850
34 | COc1ccc(CCNc2nc(NCCc3cnc[nH]3)nc(NCc3cccc4ccccc34)n2)cc1OC | 540
35 | CN1CCN(CCc2ccc3nc(-c4csc(Cc5cc(Cl)ccc5OCc5ccccc5)n4)[nH]c3c2)CC1 | 750
36 | Cc1ccc(Nc2nc(N)c3ccccc3n2)cc1 | 840
37 | Oc1ccc(Br)cc1-c1nc2ccc(Cl)cc2nc1-c1cc(Br)ccc1O | 790
38 | COc1ccc(NC(=O)[C@H](CC(C)C)Nc2cc(C)nc(Nc3ccccc3)n2)cc1 | 870
39 | COc1ccc2ncc(F)c(CCN3CCC(NCc4cc(OC)c5c(c4)OCCO5)CC3)c2n1 | 570
